Laboratory results reported in patent US20080261866A1, “Compositions Comprising Glycosaminoglycan and Nonsteroidal Anti-Inflammatory Drug” (PANACEA BIOTEC LTD., priority 2005, published 2008).

What was measured:
[1] = system: Indomethacin-induced gastric ulcers; assay: Indomethacin-induced acute gastric ulcers in rats; type: in vivo, Wistar rats; conditions: Single oral administration of indomethacin 20 mg/kg, fasted animals
Description: The observed unexpected gastroprotective effect of Chondroitin sulphate is evidenced by test conducted in rats. Wistar rats of either sex were procured from Central Animal House facility, Panacea Biotec Ltd., India. The animals were fasted overnight and those weighing between 150-170 gms at the time of testing were used throughout. […] In brief, overnight fasted animals were administered orally with 20 mg/kg of Indomethacin on the day of experimentation. […] [table]

[2] = system: diclofenac-induced gastric ulcers; assay: Diclofenac-induced acute gastric ulcers in rats; conditions: Single oral administration of diclofenac free acid 100 mg/kg, fasted animals
Description: Wistar rats of either sex were fasted overnight and weighing 170-200 g at the time of testing were used throughout. […] A dosing volume of 10 ml/kg was used for each sequential solution or suspension. All doses were coded and the test was performed under a code not known to the observer.
The ulcers were induced as described by Chan et al. (1995). In brief, overnight fasted animals were weighed and randomly divided into four groups. […] The number of ulcers was identified using 10× magnifying lens, counted, multiplied by respective score, and summed up for each animal. The mean score as ulcer index in each group was calculated as mentioned below.

Row | Structure (SMILES) | Gastric damage (in words) [1] | Gastric damage (in words) [2]
1 | COc1ccc2c(c1)c(CC(=O)O)c(C)n2C(=O)c1ccc(Cl)cc1 [Indomethacin] | severe gastric damage | 
2 | O=C(O)Cc1ccccc1Nc1c(Cl)cccc1Cl [Diclofenac, Diclofenac free acid] |  | severe gastric damage
